Data reported in the supplement of paper PMC10307832.

What was measured:
Assay in all cases: relative viability (nuclei count vs DMSO), 5 days (fraction); higher = more cells survive
[1] = compound: CC(C)(C)c1cc(NC(=O)Nc2ccc(-c3cn4c(n3)sc3cc(OCCN5CCOCC5)ccc34)cc2)no1 [Quizartinib] + CC(=O)c1c(C)c2cnc(Nc3ccc(N4CCNCC4)cn3)nc2n(C2CCCC2)c1=O [Palbociclib] (partner 0.5 µM)
Method in brief: (§1)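 After 5 days of treatment, lung cancer cells in 1536-well plates were fixed and stained in a single step (final 0.05% Triton X-100, 1% formaldehyde, 1 ug/ml Hoechst) and their nuclei counted on 4× images. Treatment had been applied by pin tool the day after seeding as one drug alone or as a fixed anchor-drug dose with five library-drug doses (not always all listed) in √10 steps. Relative viability is the nuclei count of treated wells divided by that of vehicle wells, and values are medians of duplicate plates.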

[2] = compound: CC(C)(C)c1cc(NC(=O)Nc2ccc(-c3cn4c(n3)sc3cc(OCCN5CCOCC5)ccc34)cc2)no1 [Quizartinib] + Nc1nc2[nH]cc(CCc3ccc(C(=O)N[C@@H](CCC(=O)O)C(=O)O)cc3)c2c(=O)[nH]1 [Pemetrexed] (partner 0.2 µM)
Method in brief: as §1

[3] = compound: COCC[n+]1c2c(n(Cc3cnccn3)c1C)C(=O)c1ccccc1C2=O [YM155] + Cc1nc(NC(=O)N2CCC[C@H]2C(N)=O)sc1-c1ccnc(C(C)(C)C(F)(F)F)c1 [Alpelisib] (partner 2 µM)
Method in brief: as §1

[4] = compound: COCC[n+]1c2c(n(Cc3cnccn3)c1C)C(=O)c1ccccc1C2=O [YM155] + Nc1ncn([C@H]2C[C@H](O)[C@@H](CO)O2)c(=O)n1 [Decitabine] (partner 2 µM)
Method in brief: as §1

Cell Line	relative viability ([1]; first compound 0.001 µM)	relative viability ([1]; first compound 0.003162 µM)	relative viability ([1]; first compound 0.01 µM)	relative viability ([1]; first compound 0.03162 µM)	relative viability ([1]; first compound 0.1 µM)	relative viability ([2]; first compound 0.001 µM)	relative viability ([2]; first compound 0.003162 µM)	relative viability ([2]; first compound 0.01 µM)	relative viability ([2]; first compound 0.03162 µM)	relative viability ([2]; first compound 0.1 µM)	relative viability ([3]; first compound 0.002 µM)	relative viability ([3]; first compound 0.006325 µM)	relative viability ([3]; first compound 0.02 µM)	relative viability ([3]; first compound 0.06325 µM)	relative viability ([4]; first compound 0.006325 µM)	relative viability ([4]; first compound 0.02 µM)	relative viability ([4]; first compound 0.06325 µM)	relative viability ([4]; first compound 0.002 µM)
NCI-H23	0.425	0.543	0.548	0.453	0.396	0.6	0.62	0.639	0.593	0.635	0.707	0.669	0.71	0.271	0.278	0.291	0.363	
NCI-H322M	0.429	0.477	0.49	0.512	0.527	0.6	0.662	0.639	0.62	0.703	0.762	0.878	0.666	0.732	0.722	0.7	0.753	0.689
NCI-H358	0.131	0.117	0.134		0.138	0.164	0.148	0.223		0.155	0.801	0.871	0.911	0.283	0.2	0.199	0.22	0.257
NCI-H441	0.191	0.222	0.169	0.191	0.219	0.261	0.267	0.247	0.255	0.287	0.733	0.644	0.567	0.429	0.243	0.248	0.189	0.277
NCI-H460		0.136	0.188		0.125		0.058	0.0614		0.073	0.433	0.498	0.436	0.452	0.503	0.477	0.475	0.496
NCI-H520		0.257	0.251	0.196	0.175		0.557	0.745	0.714	0.477	0.858	1	0.853	0.871	0.531	0.531	0.397	0.469
NCI-H647	0.371	0.348	0.413	0.403	0.511	0.141	0.125	0.221	0.182	0.19	0.989	1.11	1.09	0.901	0.405	0.288	0.272	0.482
NCI-H650	0.355	0.309	0.361	0.336	0.355	0.902	0.945	0.9	0.912	1.09	1.14	1.07	1.15	0.992	0.3	0.282	0.293	0.329
NCI-H661	0.369	0.348	0.391	0.384	0.339	0.868	0.887	0.926	0.898	0.89	0.637	0.657	0.862	0.59	0.516	0.533	0.47	0.516
NCI-H838	0.212	0.244	0.205	0.217	0.179	0.244	0.231	0.268	0.257	0.236	0.971	0.991	1.05	0.316	0.471	0.399	0.383	0.423
NCI-H1355	0.379	0.378	0.415	0.36	0.363	0.972	1.03	0.92	1.09	0.935	0.846	0.869	0.932	0.963	0.374	0.383	0.357	0.312
NCI-H1395	0.549	0.573	0.668	0.591	0.598	0.802	0.927	0.717	0.74	1	1.13	1.24	1.14	1.12	0.689	0.736	0.776	0.715
NCI-H1437	0.298	0.288	0.32	0.299	0.261	0.314	0.302	0.305	0.335	0.32	0.958	1.03	0.993	0.835	0.539	0.567	0.472	0.557
NCI-H1651	0.456	0.479	0.54	0.517	0.566	0.524	0.594	0.665	0.596	0.59	0.979	0.904	0.925	0.694	0.613	0.627	0.586	0.667
NCI-H1666	0.618	0.66	0.683	0.638	0.637	0.772	0.822	0.85	0.827	0.914	0.822		1.11	0.844	0.671	0.78	0.726	0.749
NCI-H1734	0.277	0.338	0.349	0.341	0.347	0.375	0.412	0.407	0.457	0.412	0.63	0.658	0.697	0.776	0.525	0.468	0.446	0.474
NCI-H1755	0.418	0.451	0.471	0.446	0.41	0.316	0.399	0.412	0.464	0.378	0.892	0.926	0.973	1.02	0.711	0.723	0.784	0.697
NCI-H1792		0.654	0.702	0.617	0.66	0.624	0.79	0.913	0.69	0.713	0.67	0.73	0.703	0.759	0.514	0.6	0.566	0.453
